Measured values as given in patent US8183239B2, “Substituted piperazines and piperidines as modulators of the neuropeptide Y2 receptor” (Janssen Pharmaceutica NV, priority 2005, dated 2012).
Where two headings read alike, the source gives them in different places.

Target: T1, Y2 receptors (Homo sapiens, UniProt P49146)
T1 construct: endogenous in cells; host or cells: KAN-Ts cells (membranes)
T1 sequence (P49146 1-381): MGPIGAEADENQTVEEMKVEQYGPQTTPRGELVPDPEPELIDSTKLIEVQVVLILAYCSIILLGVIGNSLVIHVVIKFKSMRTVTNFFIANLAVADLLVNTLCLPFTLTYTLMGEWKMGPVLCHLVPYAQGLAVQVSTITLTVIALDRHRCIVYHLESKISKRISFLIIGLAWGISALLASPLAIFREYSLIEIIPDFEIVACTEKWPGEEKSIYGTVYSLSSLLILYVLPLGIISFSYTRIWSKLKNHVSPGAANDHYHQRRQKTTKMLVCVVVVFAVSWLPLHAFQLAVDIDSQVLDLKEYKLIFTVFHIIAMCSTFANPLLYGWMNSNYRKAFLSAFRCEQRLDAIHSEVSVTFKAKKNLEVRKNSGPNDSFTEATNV
Assay: Radioligand binding assay ([125I]PYY, KAN-Ts cell membranes)
Details: average of results, read-out: IC50
Experimental: Radioligand Binding Assay
KAN-Ts endogenously expressing Y2 receptors were used for the radioligand binding assay. Cells were grown to confluence on 150 cm^2 tissue culture plates, washed with phosphate-buffered saline (PBS), and scraped into 50 mL tubes. After centrifugation, the supernatant was aspirated, and the pellets frozen and stored at −80° C. Thawed pellets were homogenized with a polytron tissue grinder for 15 sec in 20 mM Tris-HCl, 5 mM EDTA. The homogenate was centrifuged at 800×g for 5 min and the collected supernatant was recentrifuged at 25000×g for 25 min. The resulting pellet was resuspended in binding buffer (20 mM HEPES, 120 mM NaCl, 0.22 mM KH2PO4, 1.3 mM CaCl2, 0.8 mM MgSO4). Membranes were incubated with [^125I]PYY (80 pM) in the presence or absence of test compound for 1 h at rt. The reaction was stopped by filtration through GF/C filter plates pre-soaked in 0.3% polyethylenimine and subsequently washed with Tris 50 mM, 5 mM EDTA buffer. Plates were dried for 1 h in a 55° C. oven, scintillation fluid was added and the radioactivity was counted in a Packard TopCount. Specific binding to the NPY receptor subtypes was determined by radioactivity that was bound in the presence of […]. Each binding experiment was repeated three to eight times, each in duplicate. IC50 values (i.e. concentration of unlabelled peptide or antagonist required to compete for 50% of specific binding to the radioligand) were calculated using the GraphPad Prism software (GraphPad Software Inc., San Diego Calif.) with a fit to a sigmoidal dose response curve. Data for compounds tested are presented in Tables 1 and 2 as an average of results obtained.

SMILES	IC50 (Table 2, [125I]PYY 80 pM) [nM]	IC50 (Table 1, [125I]PYY 80 pM) [nM]
CCC(CC)C(=O)Nc1ccc(N2CCN(C(C(=O)OC)c3ccccc3)C(C(=O)OC)C2)c(F)c1 (single isomer, unassigned; diastereomer 1) [Example 269, 4-[4-(2-Ethyl-butyrylamino)-2-fluoro-phenyl]-1-(methoxycarbonyl-phenyl-methyl)-piperazine-2-carboxylic acid methyl ester (diastereomer 1)]	2300	
CCC(CC)C(=O)Nc1ccc(N2CCN(C(C(=O)OC)c3ccccc3)C(C(=O)OC)C2)c(F)c1 (single isomer, unassigned; diastereomer 2) [Example 265, 4-[4-(2-Ethyl-butyrylamino)-2-fluoro-phenyl]-1-(methoxycarbonyl-phenyl-methyl)-piperazine-2-carboxylic acid methyl ester (diastereomer 2)]	600	
CC[C@H](C)C(=O)Nc1ccc(N2CCC(C(C(=O)N(CC)CC)c3ccccc3)CC2)c(C#N)c1 (stereo in doubt) [Example 218, N-{3-Cyano-4-[4-(diethylcarbamoyl-phenyl-methyl)-piperidin-1-yl]-phenyl}-2-methyl-butyramide]	30	
CCC(CC)C(=O)Nc1ccc(N2CCN(Cc3ccccc3C(=O)OC)CC2)c(F)c1 [Example 2, 2-{4-[4-(2-Ethyl-butyrylamino)-2-fluoro-phenyl]-piperazin-1-ylmethyl}-benzoic acid methyl ester]		2350
CCC(CC)C(=O)Nc1ccc(N2CCN(Cc3cccc(C(=O)N4CCOCC4)c3)CC2)c(F)c1 [Example 3, 2-Ethyl-N-(3-fluoro-4-{4-[3-(morpholine-4-carbonyl)-benzyl]-piperazin-1-yl}-phenyl)-butyramide]		560
CCC(CC)C(=O)Nc1ccc(N2CCN(Cc3ccccc3C(=O)N(CC)CC)CC2)c(F)c1 [Example 4, N,N-Diethyl-2-{4-[4-(2-ethyl-butyrylamino)-2-fluoro-phenyl]-piperazin-1-ylmethyl}-benzamide]		370
CCC(CC)C(=O)Nc1ccc(N2CCN(Cc3ccccc3C(=O)N3CCOCC3)CC2)c(F)c1 [Example 5, 2-Ethyl-N-(3-fluoro-4-{4-[2-(morpholine-4-carbonyl)-benzyl]-piperazin-1-yl}-phenyl)-butyramide]		1900
CCNC(=O)C(c1ccccc1)N1CCN(c2ccc(NC(=O)C(CC)CC)cc2F)CC1 (stereo not shown) [Example 7, 2-Ethyl-N-{4-[4-(ethylcarbamoyl-phenyl-methyl)-piperazin-1-yl]-3-fluoro-phenyl}-butyramide]		377
CCN(CC)C(=O)C(c1ccccc1)C1CCN(c2ccc(NC(=O)Cc3c(C)noc3C)cc2F)CC1 (stereo not shown) [Example 9, 2-(1-{4-[2-(3,5-Dimethyl-isoxazol-4-yl)-acetylamino]-2-fluoro-phenyl}-piperidin-4-yl)-N,N-diethyl-2-phenyl-acetamide]		14
CCC(CC)C(=O)Nc1ccc(N2CCC(C(C(=O)N(CC)CC)c3ccccc3)CC2)c(F)c1 (stereo not shown) [Example 11, N-{4-[4-(Diethylcarbamoyl-phenyl-methyl)-piperidin-1-yl]-3-fluoro-phenyl}-2-ethyl-butyramide]		12
CCNC(=O)C(c1ccccc1)C1CCN(c2ccc(NC(=O)NCc3ccc(F)cc3)cc2F)CC1 (stereo not shown) [Example 17, N-Ethyl-2-(1-{2-fluoro-4-[3-(4-fluoro-benzyl)-ureido]-phenyl}-piperidin-4-yl)-2-phenyl-acetamide]		1000
CCNC(=O)C(c1ccccc1)C1CCN(c2ccc(NC(=O)C(C)C)cc2)CC1 (stereo not shown) [Example 18, N-{4-[4-(Ethylcarbamoyl-phenyl-methyl)-piperidin-1-yl]-phenyl}-isobutyramide]		4000
CCNC(=O)C(c1ccccc1)C1CCN(c2ccc(NC(=O)CC3CCCCC3)cc2F)CC1 (stereo not shown) [Example 19, 2-{1-[4-(2-Cyclohexyl-acetylamino)-2-fluoro-phenyl]-piperidin-4-yl}-N-ethyl-2-phenyl-acetamide]		10000
CCN(CC)C(=O)C(c1ccccc1)N1CCN(c2ccc(NC(=O)Nc3c(C)noc3C)cc2F)CC1 (stereo not shown) [Example 20, 2-(4-{4-[3-(3,5-Dimethyl-isoxazol-4-yl)-ureido]-2-fluoro-phenyl}-piperazin-1-yl)-N,N-diethyl-2-phenyl-acetamide]		16
CCN(CC)C(=O)C(c1ccccc1)N1CCN(c2ccc(NC(=O)Cc3c(C)noc3C)cc2F)CC1 (stereo not shown) [Example 21, 2-(4-{4-[2-(3,5-Dimethyl-isoxazol-4-yl)-acetylamino]-2-fluoro-phenyl}-piperazin-1-yl)-N,N-diethyl-2-phenyl-acetamide]		20
CCN(CC)C(=O)C(c1ccccc1)N1CCN(c2ccc(NC(=O)c3c(C)noc3C)cc2F)CC1 (stereo not shown) [Example 22, 3,5-Dimethyl-isoxazole-4-carboxylic acid {4-[4-(diethylcarbamoyl-phenyl-methyl)-piperazin-1-yl]-3-fluoro-phenyl}-amide]		26
CCNC(=O)C(c1ccccc1)N1CCN(c2ccc(NC(=O)NCc3ccc(F)cc3)cc2F)CC1 (stereo not shown) [Example 26, N-Ethyl-2-(4-{2-fluoro-4-[3-(4-fluoro-benzyl)-ureido]-phenyl}-piperazin-1-yl)-2-phenyl-acetamide]		2000

Now from value to compound:

IC50 (Table 2, [125I]PYY 80 pM) [nM]	IC50 (Table 1, [125I]PYY 80 pM) [nM]	SMILES
	58	CCC(CC)C(=O)Nc1ccc(N2CCN(C(C(=O)N3CCCC3)c3ccccc3)CC2)c(F)c1 (stereo not shown) [Example 1, 2-Ethyl-N-{3-fluoro-4-[4-(2-oxo-1-phenyl-2-pyrrolidin-1-yl-ethyl)-piperazin-1-yl]-phenyl}-butyramide]
	71	CCC(CC)C(=O)Nc1ccc(N2CCN(C(C(=O)N(CC)CC)c3ccccc3)CC2)c(F)c1 (stereo not shown) [Example 6, N-{4-[4-(Diethylcarbamoyl-phenyl-methyl)-piperazin-1-yl]-3-fluoro-phenyl}-2-ethyl-butyramide]
	10	CCN(CC)C(=O)C(c1ccccc1)C1CCN(c2ccc(NC(=O)Nc3c(C)noc3C)cc2F)CC1 (stereo not shown) [Example 8, 2-(1-{4-[3-(3,5-Dimethyl-isoxazol-4-yl)-ureido]-2-fluoro-phenyl}-piperidin-4-yl)-N,N-diethyl-2-phenyl-acetamide]
	26	CCN(CC)C(=O)C(c1ccccc1)C1CCN(c2ccc(NC(=O)c3c(C)noc3C)cc2F)CC1 (stereo not shown) [Example 12, 3,5-Dimethyl-isoxazole-4-carboxylic acid {4-[4-(diethylcarbamoyl-phenyl-methyl)-piperidin-1-yl]-3-fluoro-phenyl}-amide]
	58	CCNC(=O)C(c1ccccc1)C1CCN(c2ccc(NC(=O)Cc3c(C)noc3C)cc2F)CC1 (stereo not shown) [Example 13, 2-(1-{4-[2-(3,5-Dimethyl-isoxazol-4-yl)-acetylamino]-2-fluoro-phenyl}-piperidin-4-yl)-N-ethyl-2-phenyl-acetamide]
	112	CCNC(=O)C(c1ccccc1)C1CCN(c2ccc(NC(=O)C(CC)CC)cc2F)CC1 (stereo not shown) [Example 14, 2-Ethyl-N-{4-[4-(ethylcarbamoyl-phenyl-methyl)-piperidin-1-yl]-3-fluoro-phenyl}-butyramide]
	162	CCNC(=O)C(c1ccccc1)C1CCN(c2ccc(NC(=O)Nc3c(C)cccc3C)cc2F)CC1 (stereo not shown) [Example 15, 2-(1-{4-[3-(2,6-Dimethyl-phenyl)-ureido]-2-fluoro-phenyl}-piperidin-4-yl)-N-ethyl-2-phenyl-acetamide]
	280	CCCC(CCC)C(=O)Nc1ccc(N2CCC(C(C(=O)NCC)c3ccccc3)CC2)c(F)c1 (stereo not shown) [Example 16, 2-Propyl-pentanoic acid {4-[4-(ethylcarbamoyl-phenyl-methyl)-piperidin-1-yl]-3-fluoro-phenyl}-amide]
	42	CCNC(=O)C(c1ccccc1)N1CCN(c2ccc(NC(=O)Nc3c(C)noc3C)cc2F)CC1 (stereo not shown) [Example 23, 2-(4-{4-[3-(3,5-Dimethyl-isoxazol-4-yl)-ureido]-2-fluoro-phenyl}-piperazin-1-yl)-N-ethyl-2-phenyl-acetamide]
	176	CCNC(=O)C(c1ccccc1)N1CCN(c2ccc(NC(=O)Cc3c(C)noc3C)cc2F)CC1 (stereo not shown) [Example 24, 2-(4-{4-[2-(3,5-Dimethyl-isoxazol-4-yl)-acetylamino]-2-fluoro-phenyl}-piperazin-1-yl)-N-ethyl-2-phenyl-acetamide]
	260	CCNC(=O)C(c1ccccc1)N1CCN(c2ccc(NC(=O)Nc3cc(C)ccc3C)cc2F)CC1 (stereo not shown) [Example 25, 2-(4-{4-[3-(2,5-Dimethyl-phenyl)-ureido]-2-fluoro-phenyl}-piperazin-1-yl)-N-ethyl-2-phenyl-acetamide]
